One substance from patent US5700776A, “Medicaments comprising glicentin as active ingredient” (Nisshin Flour Milling Co., Ltd., priority 1992, dated 1997) can be followed below.

One series deals with arginine loaded dogs. Nature of the series: Infusion of glicentin and glucagon into the pancreatic artery of arginine loaded dogs; plasma hormones and blood glucose. Format: in vivo, dog. Conditions: glicentin 100 pmol or 400 pmol infused into pancreatic artery for 10 minutes.
Another series concerns male MALB/c mice. In words: Intraperitoneal administration to mice, observation of appearance. Format: in vivo. Conditions: 10 mg/kg intraperitoneally, male MALB/c mice (6 weeks age).

Procedure for arginine loaded dogs: Healthy mongrel dogs weighing 13 to 17 kg were subjected to the test after an overnight fast (A. Ohneda et al., Horm. Metab. Res., 9, 447-452 (1977)).
The animals were anesthetized with sodium pentobarbital (Nembutal®) and their abdomens were opened. […] After the operation was completed, saline solution containing 0.5% arginine was infused into the pancreatic artery at a constant rate of 2 ml/min through the cannula using an infusion pump. […] 4 ml portions of blood samples for hormone assay were collected at various intervals into a glass tube containing 1000 KIU aprotinine and 10 mg EDTA.
The plasma insulin was measured in accordance with a known method mentioned in C.
The blood glucose was measured for blood drawn from the femoral artery by the glucose oxidase method using a test kit for the determination of blood glucose (available from Wako Pure Chemical Industries, Japan under the trade name of "Glucose B-Test Wako").

For the substance “human glicentin (natural type): peptide of 69 amino acid residues, SEQ ID NO:2, produced by genetic engineering in E. coli”, the “insulin secretion (plasma insulin, IRI)” value in the series with arginine loaded dogs (anesthetized dogs under 0.5% arginine infusion) is recorded as “stimulates insulin secretion”. Besides, in the series on arginine loaded dogs (antiserum G 21), the “glucagon level (IRG(G 21))” value is “not increased”. The blood glucose levels entry in the series on arginine loaded dogs (blood from femoral artery, glucose oxidase method) is recorded as “no change in blood glucose levels”. Further, the change in appearance result with male MALB/c mice is recorded as “no change in appearance”.
